From US20130131128A1, “ASSOCIATION OF XANTHINE OXIDASE INHIBITORS AND ANGIOTENSIN II RECEPTOR ANTAGONISTS AND USE THEREOF” (MENARINI INTERNATIONAL OPERATIONS LUXEMBOURG S.A., priority 2010, published 2013)

How the values were obtained:
[1] = test system: spontaneously hypertensive rat (SHR); assay: Plasma uric acid (uricemia) in potassium oxonate-induced hyperuricemia in spontaneously hypertensive rats; assay type: in vivo; conditions: for Uricemia: SHR + K oxonate 250 mg/kg IP, 4 hours after last dose; for Δ Uricemia: SHR + K oxonate, difference vs Control + K oxonate; for Effect on hyperuricemia values (in words): oral, one week before potassium oxonate, 1-3-10 mg/kg, SHR
Protocol: (§1) Pharmacological activity of febuxostat and olmesartan medoxomil, alone or in association, was assessed in an experimental model of hyperuricemia in spontaneously hypertensive rat (SHR, Harlan Laboratories, Udine, Italy). Systolic pressure (SBP) was measured in non-anesthesized animals by means of a tail cuff sphygmomanometer (Blood Pressure Analysis System BP-2000, Visitech Systems, USA) equipped with an automatic system for data acquisition and processing.
(§2) All animals were preconditioned daily for 2 weeks to accustom them to instrumental measuring of the pressure before starting the test. Hyperuricemia was induced with administration of potassium oxonate (250 mg/kg IP, 2 hours after the last dose of drugs and 2 hours before the test), an uricase inhibitor capable of inducing experimental hyperuricemia. Plasma levels of uric acid were measured with a standard colorimetric enzymatic method. Febuxostat and/or olmesartan were administered orally once per day for 7 days, by gavage, at the doses of 1-3-10 mg/kg.
(§3) Parameters measured in conscious rats were systolic pressure (SBP) and plasma uric acid/urate levels (uricemia), as well as basal values, both after one week of treatment and 2 hours after administration of potassium oxonate. Blood was collected from a tail vein.
(§4) Uricemia and systolic pressure values were recorded 4 hours after the last dose of drugs or vehicle. Potassium oxonate (250 mg/kg IP) was administered 2 ore before the test. Each value is the average of 7-13 tests.

[2] = test system: spontaneously hypertensive rat (SHR); assay: Systolic pressure (SBP) by tail cuff sphygmomanometer in conscious spontaneously hypertensive rats; assay type: in vivo; conditions: for SBP / Δ SBP: SHR + K oxonate; for SBP: 4 hours after last dose; for Δ SBP: difference vs Control + K oxonate; for Effect on systolic pressure (in words): 1-3-10 mg/kg per os, daily for 1 week, SHR
Protocol: as §1, §2, §3, §4

[3] = test system: hyperuricemia; conditions: clinical studies; cited from earlier work
[4] = test system: 30 hypertensive subjects; conditions: monotherapy, only teenagers; cited from earlier work
[5] = 1 mg/kg day per os for one week
[6] = 3 mg/kg day per os for one week
[7] = 10 mg/kg day per os for one week

Structure (SMILES)	Uricemia [1, 5] [mg/dL]	Δ Uricemia [1, 5] [mg/dL]	Uricemia [1, 6] [mg/dL]	Δ Uricemia [1, 6] [mg/dL]	Uricemia [1, 7] [mg/dL]	Δ Uricemia [1, 7] [mg/dL]	Effect on hyperuricemia values (in words) [1]	SBP [2, 5] [mmHg]	Δ SBP [2, 5] [mmHg]	SBP [2, 6] [mmHg]	Δ SBP [2, 6] [mmHg]	SBP [2, 7] [mmHg]	Δ SBP [2, 7] [mmHg]	Effect on systolic pressure (in words) [2]	Reduction of hyperuricemia compared with allopurinol (in words) [3]	Anti-hypertensive effect (in words) [4]
Cc1nc(-c2ccc(OCC(C)C)c(C#N)c2)sc1C(=O)O [Febuxostat, febuxostat]	1.02 ± 0.07	-0.15	0.78 ± 0.06	-0.39	0.49 ± 0.05	-0.68	reduced in a significant and dose-dependent manner the hyperuricemia values	234 ± 19	−5	229 ± 24	−10	228 ± 21	−11	slight inhibitory effect on systolic pressure	reduce hyperuricemia more effectively than allopurinol	–
CCCc1nc(C(C)(C)O)c(C(=O)OCc2oc(=O)oc2C)n1Cc1ccc(-c2ccccc2-c2nnn[nH]2)cc1 [Olmesartan, olmesartan medoxomil]	1.16 ± 0.11	-0.01	1.10 ± 0.12	-0.07	1.08 ± 0.07	-0.09	weakly active	217 ± 14	−22	202 ± 10	−37	180 ± 11	−59	reduced systolic pressure in a dose-dependent manner	–	–
Oc1ncnc2[nH]ncc12 [allopurinol]	–	–	–	–	–	–	–	–	–	–	–	–	–	–	–	has shown an anti-hypertensive effect
